From patent US20090317371A1, “Method, Composition, and Device, for the Treatment of Amylase Malfunctions / Inactivity in Association with Saccharides (Mainly Polysaccharides) Based Diseases” (priority 2008, published 2009)

Test: In-vitro testing of glucose units in a glucose solution before and after mixing with the agent
Type: biochemical
Conditions: 10 mls of 10% glucose solution (more than 600 mg/dl before)
Procedure: Our methods were: In-vitro testing to determine glucose units in a glucose solution before and after mixing with Amzylite against other known hypoglaycaemic agents (metformin, sulfonylurea, etc) including insulin. 10 mls of 10% concentrated glucose solution tested for glucose concentration using glucose oxidase and or hexokinase (glucometers can also be used). […] One or two capsule of Amzylite was added to the glucose solution. In-vivo: 141 type I and type II diabetics with diabetes neuropathy, in addition to 9 diabetics with renal incompetency, 15 diabetics with chronic wounds to extremities, 2 diabetics had progressive gas gangrene, all patients had neuropathy with impaired sensations to distal extremities and one none diabetic with renal failure were identified. 31 out of 141 were excluded for incomplete records. 8 self discharged. 128 classified into 4 groups: 33 on insulin therapy; 20 on insulin and oral hypoglycaemic agents, 58 on only oral hypoglycaemic therapy, 16 on diet control only. 9 with high creatinine levels, 15 with chronic wounds, 2 had gas gangrene to distal extremities and one non diabetic had renal incompetency and was on dialysis. Laboratory tests were determined before and after starting Amzylite. No placebo was given.
In-vitro testing to determine glucose units in a glucose solution before and after mixing with Amzylite against other known hypoglaycaemic agents (metformin, sulfonylurea, etc) including insulin. 10 mls of 10% concentrated glucose solution tested for glucose concentration using glucose oxidase and or hexokinase (glucometers can also be used). […] One capsule of Amzylite added to the glucose solution. For In-vivo study to determine the effectiveness of Amzylite as treatment for D.M. 141 patients with type I and type II D.M were treated with Amzylite. 31 patients were excluded for incomplete records. 8 patients' self withdrawn. […] Fasting and 2 hours postprandial blood glucose levels (HbA1c checked in some but not all patients) were determined before starting Amzylite. […] Saliva enzymes function tests were determined for disaccharides and polysaccharides in all patients. […] Improvement in patients' symptoms, daily glucose readings (fasting/2 hour postprandial) and HbA1c were set up as target and evaluation criteria. […] Changes were also determined by […]. 1—Improvement with complete recovery, 2—Significant improvement of symptoms and readings (range 70-170 mg/dl and below 200 mg/dl), 3—Improved symptoms but no change on readings, 4—Improved readings but no improvement on symptoms, 5—No change on symptoms or readings, 6—Higher or lower glucose readings. […]

[1] = one capsule of Amzylite, second study
[2] = one or two capsules of Amzylite, first study

Compound	In vitro glucose readings after mixing [1]	In vitro glucose readings after mixing [2]
CN(C)C(=N)N=C(N)N [metformin]	No changes	No changes
insulin	No changes	No changes
